# Experimental data from paper PMC10291556 (Journal of Medicinal Chemistry, 2023).
# Test: NMR reduction studies with GSH or ascorbic acid
# Type: physicochemical
# Details: up to 10 equiv of reducing agent, 48 h, 37 °C, PBS/D2O, 1H NMR
# Procedure: Thus, all compounds were >95% pure by NMR and HPLC analyses. NMR reduction studies were also undertaken where excess equivalents of reducing agents GSH or ascorbic acid were added to the sample before undertaking multiple NMR measurements over a 48 h period at 37 °C. These reducing agents were chosen to mimic the reducing capacity of the […] environment of the blood and tissue. […] However, once inside the cell, reactions with intracellular components might be induced, rendering the prodrug biodegradable. […] Therefore, the complex is unlikely to be reduced in the bloodstream. Monitoring the Pt(IV) peak, falling as the Pt(II) peak rises, would be ideal for further proof of the stability of these complexes, but the Pt(IV) resonance falls outside the detectable range of our instrument.
# One equivalent of the complex was dissolved in 500 μL of PBS using D2O for a ^1H NMR experiment performed on a Bruker AVANCE 400 MHz NMR spectrometer, with 50 dummy scans (approx. 5 min) to allow the sample to reach 37 °C before 128 scans were taken. The sample was removed, and the reducing agent was quickly added. Then the NMR measurement was taken again (50 dummy scans followed by 128 scans). The NMR was subsequently set up to measure one 128-scan experiment after another for 4 h, at which point the sample was removed, stored, and scanned again after 24 and 48 h. […]
smiles,measurement,value
"Cc1c(C)c2c3c4c1=CC=C[N]4[Pt][N]3C=CC=2.NCCNC(=O)Cc1ccccc1Nc1c(Cl)cccc1Cl.NCCNC(=O)Cc1ccccc1Nc1c(Cl)cccc1Cl.N[C@H]1CCCC[C@@H]1N [complex 4, Pt^IV56MeSS(DCF)2]",stability towards reduction by GSH or ascorbic acid,the compound had not been reduced
